ChEMBL document CHEMBL1142055, “Quinolinium salt as a potent inhibitor of lymphocyte apoptosis” (Bioorg Med Chem Lett, 2005)

Organism: Mus musculus
Experiment: Effective concentration by cytoprotection activity on glucocorticoid-induced apoptosis in murine thymocytes was determined in vitro
Type: functional

| SMILES | EC50 [µM] |
| --- | --- |
| CO/N=C(/C[n+]1ccccc1)c1ccc(N2CCCC2)cc1 | 0.28 |
| CO/N=C(/C[n+]1cccc2ccccc21)c1ccc(N2CCCC2)cc1 | 0.013 |
| CO/N=C(/C[n+]1cccc2ccccc21)c1ccc(C)cc1 | 0.35 |
| CO/N=C(/Cn1c(=O)ccc2ccccc21)c1ccc(N2CCCC2)cc1 | > 10 |
| CO/N=C(/C[n+]1ccccc1)c1ccc(C)cc1 | 5.1 |

Continued, values first:

| EC50 [µM] | SMILES |
| --- | --- |
| 4.4 | Cc1ccc(C(=O)Cn2c3c(sc2=N)CCCC3)cc1 |
| > 10 | CO/N=C(/Cn1c(=O)ccc2ccccc21)c1ccc(C)cc1 |
| > 10 | Cc1ccc(C(=O)Cn2c(=O)ccc3ccccc32)cc1 |
| > 10 | Cc1ccc(C(=O)C[n+]2cccc3ccccc32)cc1 |
| 2.5 | Cc1ccc(-c2cn3c4c(sc3n2)CCCC4)cc1 |
| > 10 | Cc1ccc(C(=O)C[n+]2ccccc2)cc1 |
